{
  "source": "paper PMC8550792",
  "about": "“Evolution of kinase polypharmacology across HSP90 drug discovery” (Cell Chemical Biology, 2021)",
  "key": {"PRKD3": {"tested_on": "PRKD3", "set-up": "method as in ChEMBL23 (accessed: 23/08/2018)", "conditions": "average of reported values; ref ChEMBL23 (accessed: 23/08/2018); cited from earlier work"}, "PIM1": {"tested_on": "PIM1", "set-up": "method as in ChEMBL23 (accessed: 23/08/2018)", "conditions": "average of reported values; ref ChEMBL23 (accessed: 23/08/2018); cited from earlier work"}, "CSF1R": {"tested_on": "CSF1R", "set-up": "method as in ChEMBL23 (accessed: 23/08/2018)", "conditions": "average of reported values; ref ChEMBL23 (accessed: 23/08/2018); cited from earlier work"}, "ROCK2": {"tested_on": "ROCK2", "set-up": "method as in ChEMBL23 (accessed: 23/08/2018)", "conditions": "average of reported values; ref ChEMBL23 (accessed: 23/08/2018); cited from earlier work"}, "PEAK1": {"biological_target": "T1, PEAK1 (Homo sapiens, UniProt Q9H792)", "T1 construct": "purchased Reaction Biology (HotSpot contract assay)", "assay": "HotSpot in vitro kinase radiometric assay", "assay_type": "biochemical"}, "CDK2": {"tested_on": "CDK2", "set-up": "method as in ChEMBL23 (accessed: 23/08/2018)", "conditions": "average of reported values; ref ChEMBL23 (accessed: 23/08/2018); cited from earlier work"}, "PRKD2": {"tested_on": "PRKD2", "set-up": "method as in ChEMBL23 (accessed: 23/08/2018)", "conditions": "average of reported values; ref ChEMBL23 (accessed: 23/08/2018); cited from earlier work"}, "TRKC": {"biological_target": "T2, TRKC (Homo sapiens, UniProt Q16288)", "T2 construct": "purchased Reaction Biology (HotSpot contract assay)", "T2 sequence (Q16288 32-839)": "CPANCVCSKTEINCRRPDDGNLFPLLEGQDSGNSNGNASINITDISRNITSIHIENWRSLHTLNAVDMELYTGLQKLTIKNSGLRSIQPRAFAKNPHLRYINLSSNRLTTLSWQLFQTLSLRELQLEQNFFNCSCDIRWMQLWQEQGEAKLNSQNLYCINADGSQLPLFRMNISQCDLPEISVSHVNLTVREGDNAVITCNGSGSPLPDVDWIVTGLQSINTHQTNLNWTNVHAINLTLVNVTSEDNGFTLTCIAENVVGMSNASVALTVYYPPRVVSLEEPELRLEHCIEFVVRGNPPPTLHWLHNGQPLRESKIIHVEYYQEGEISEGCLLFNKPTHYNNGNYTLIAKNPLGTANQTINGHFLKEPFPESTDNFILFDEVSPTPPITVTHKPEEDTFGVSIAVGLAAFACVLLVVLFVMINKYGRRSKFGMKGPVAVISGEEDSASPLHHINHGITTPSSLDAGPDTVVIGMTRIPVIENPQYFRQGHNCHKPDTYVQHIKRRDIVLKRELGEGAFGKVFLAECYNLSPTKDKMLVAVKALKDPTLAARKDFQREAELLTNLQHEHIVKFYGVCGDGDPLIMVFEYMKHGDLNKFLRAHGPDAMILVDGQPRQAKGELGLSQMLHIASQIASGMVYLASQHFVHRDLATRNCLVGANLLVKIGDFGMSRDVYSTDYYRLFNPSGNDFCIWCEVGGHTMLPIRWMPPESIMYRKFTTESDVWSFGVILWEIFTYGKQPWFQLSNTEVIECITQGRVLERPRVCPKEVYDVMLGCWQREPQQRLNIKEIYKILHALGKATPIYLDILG", "assay": "HotSpot in vitro kinase radiometric assay", "assay_type": "biochemical"}, "PASK": {"biological_target": "T3, PASK (Homo sapiens, UniProt Q96RG2)", "T3 construct": "purchased Reaction Biology (HotSpot contract assay)", "T3 sequence (Q96RG2 whole entry)": "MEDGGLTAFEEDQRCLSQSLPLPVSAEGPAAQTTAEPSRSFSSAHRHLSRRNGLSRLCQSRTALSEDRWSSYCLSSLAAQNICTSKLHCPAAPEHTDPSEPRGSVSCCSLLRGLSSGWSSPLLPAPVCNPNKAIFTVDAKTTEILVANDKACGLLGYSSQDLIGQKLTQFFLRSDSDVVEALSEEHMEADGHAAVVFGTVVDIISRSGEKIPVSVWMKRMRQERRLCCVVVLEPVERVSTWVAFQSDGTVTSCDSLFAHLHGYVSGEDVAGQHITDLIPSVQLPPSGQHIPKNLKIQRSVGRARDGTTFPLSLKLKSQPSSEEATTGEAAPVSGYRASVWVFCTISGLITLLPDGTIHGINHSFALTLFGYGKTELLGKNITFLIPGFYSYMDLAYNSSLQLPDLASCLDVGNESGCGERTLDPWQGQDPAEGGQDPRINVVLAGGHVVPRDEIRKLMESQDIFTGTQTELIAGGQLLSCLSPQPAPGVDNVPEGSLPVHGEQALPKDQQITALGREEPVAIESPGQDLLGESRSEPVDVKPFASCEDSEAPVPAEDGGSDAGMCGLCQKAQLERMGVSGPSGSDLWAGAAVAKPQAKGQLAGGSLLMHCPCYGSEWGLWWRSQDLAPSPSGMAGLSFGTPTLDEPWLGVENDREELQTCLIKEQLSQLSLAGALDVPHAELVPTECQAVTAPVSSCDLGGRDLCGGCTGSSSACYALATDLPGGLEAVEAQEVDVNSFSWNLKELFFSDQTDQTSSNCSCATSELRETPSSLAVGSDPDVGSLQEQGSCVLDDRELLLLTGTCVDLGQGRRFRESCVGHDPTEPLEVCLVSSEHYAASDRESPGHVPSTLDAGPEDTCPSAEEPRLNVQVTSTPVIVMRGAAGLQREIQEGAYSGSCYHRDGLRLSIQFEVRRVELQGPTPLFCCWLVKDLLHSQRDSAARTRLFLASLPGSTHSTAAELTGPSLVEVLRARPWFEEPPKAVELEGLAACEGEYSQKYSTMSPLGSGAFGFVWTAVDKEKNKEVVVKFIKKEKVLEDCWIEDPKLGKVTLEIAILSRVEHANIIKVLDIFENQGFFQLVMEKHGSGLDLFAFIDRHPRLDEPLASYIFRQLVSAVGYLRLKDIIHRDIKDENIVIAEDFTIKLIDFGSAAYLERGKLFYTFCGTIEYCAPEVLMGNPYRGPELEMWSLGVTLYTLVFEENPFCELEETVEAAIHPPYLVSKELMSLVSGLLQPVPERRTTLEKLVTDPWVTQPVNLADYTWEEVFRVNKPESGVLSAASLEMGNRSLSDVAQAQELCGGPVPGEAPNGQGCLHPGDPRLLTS", "assay": "HotSpot in vitro kinase radiometric assay", "assay_type": "biochemical", "how_it_was_run": "(§1)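 Product formation was detected via radiolabelled phosphate transferred from ɣ-ATP (32P or 33P) and captured on filter paper after spotting. The kinase reactions included substrate, cofactors and compound, with no antibodies or coupling enzymes involved.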"}, "TRKA": {"biological_target": "T4, TRKA (Homo sapiens, UniProt P04629)", "T4 construct": "purchased Reaction Biology (HotSpot contract assay)", "assay": "HotSpot in vitro kinase radiometric assay", "assay_type": "biochemical", "how_it_was_run": "as §1"}, "ABL2/ARG": {"biological_target": "T5, ABL2/ARG (Homo sapiens, UniProt P42684)", "T5 construct": "purchased Reaction Biology (HotSpot contract assay)", "T5 sequence (P42684 whole entry)": "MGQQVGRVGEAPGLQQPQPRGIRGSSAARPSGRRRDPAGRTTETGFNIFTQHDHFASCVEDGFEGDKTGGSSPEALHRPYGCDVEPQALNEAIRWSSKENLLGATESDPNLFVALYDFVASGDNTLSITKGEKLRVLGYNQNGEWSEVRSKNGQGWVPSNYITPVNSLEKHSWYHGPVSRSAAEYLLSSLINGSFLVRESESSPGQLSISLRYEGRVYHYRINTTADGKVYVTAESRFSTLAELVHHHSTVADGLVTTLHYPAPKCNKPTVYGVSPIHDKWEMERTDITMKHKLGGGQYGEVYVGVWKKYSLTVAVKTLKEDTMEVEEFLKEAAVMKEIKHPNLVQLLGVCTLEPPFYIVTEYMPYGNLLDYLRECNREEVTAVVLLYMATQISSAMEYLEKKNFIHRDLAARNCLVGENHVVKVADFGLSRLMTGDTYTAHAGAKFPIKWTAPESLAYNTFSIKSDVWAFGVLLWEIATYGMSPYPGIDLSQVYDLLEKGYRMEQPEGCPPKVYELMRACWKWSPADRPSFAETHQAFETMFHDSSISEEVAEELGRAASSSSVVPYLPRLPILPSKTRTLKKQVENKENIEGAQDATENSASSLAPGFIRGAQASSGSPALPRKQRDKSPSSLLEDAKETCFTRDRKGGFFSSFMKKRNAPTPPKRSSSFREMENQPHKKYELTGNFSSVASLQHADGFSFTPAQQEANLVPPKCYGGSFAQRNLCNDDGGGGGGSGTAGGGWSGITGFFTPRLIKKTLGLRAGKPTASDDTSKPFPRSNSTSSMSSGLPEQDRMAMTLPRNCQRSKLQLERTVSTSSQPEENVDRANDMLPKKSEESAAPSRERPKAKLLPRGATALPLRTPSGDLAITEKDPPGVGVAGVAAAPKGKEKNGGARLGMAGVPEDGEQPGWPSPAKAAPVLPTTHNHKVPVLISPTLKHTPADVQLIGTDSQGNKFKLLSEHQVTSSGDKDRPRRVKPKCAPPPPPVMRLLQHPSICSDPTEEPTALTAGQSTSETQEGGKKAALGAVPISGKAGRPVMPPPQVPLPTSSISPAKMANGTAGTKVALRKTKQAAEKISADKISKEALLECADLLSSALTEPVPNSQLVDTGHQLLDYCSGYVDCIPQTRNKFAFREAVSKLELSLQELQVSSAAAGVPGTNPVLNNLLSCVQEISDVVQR", "assay": "HotSpot in vitro kinase radiometric assay", "assay_type": "biochemical"}, "FYN": {"biological_target": "T6, FYN (Homo sapiens, UniProt P06241)", "T6 construct": "purchased Reaction Biology (HotSpot contract assay)", "T6 sequence (P06241 whole entry)": "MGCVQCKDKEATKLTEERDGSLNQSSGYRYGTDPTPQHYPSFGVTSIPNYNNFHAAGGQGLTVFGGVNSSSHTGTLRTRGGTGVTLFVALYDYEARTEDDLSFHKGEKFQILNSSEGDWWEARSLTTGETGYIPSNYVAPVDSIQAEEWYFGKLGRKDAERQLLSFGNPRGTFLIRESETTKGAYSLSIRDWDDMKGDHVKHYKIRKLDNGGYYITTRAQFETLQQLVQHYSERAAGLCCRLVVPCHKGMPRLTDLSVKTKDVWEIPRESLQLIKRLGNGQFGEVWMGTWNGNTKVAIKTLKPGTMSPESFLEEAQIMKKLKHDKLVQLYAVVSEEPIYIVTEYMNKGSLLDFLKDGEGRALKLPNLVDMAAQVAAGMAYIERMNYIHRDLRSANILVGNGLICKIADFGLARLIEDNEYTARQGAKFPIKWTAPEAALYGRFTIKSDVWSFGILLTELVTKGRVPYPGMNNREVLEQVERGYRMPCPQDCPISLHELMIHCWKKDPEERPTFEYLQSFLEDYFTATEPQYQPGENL", "assay": "HotSpot in vitro kinase radiometric assay", "assay_type": "biochemical"}, "YES/YES1": {"biological_target": "T7, YES/YES1 (Homo sapiens, UniProt P07947)", "T7 construct": "purchased Reaction Biology (HotSpot contract assay)", "assay": "HotSpot in vitro kinase radiometric assay", "assay_type": "biochemical"}, "DDR1": {"biological_target": "DDR1 (Homo sapiens, UniProt Q08345)", "assay": "HotSpot in vitro kinase radiometric assay", "assay_type": "biochemical", "set-up": "purchased Reaction Biology (HotSpot contract assay)"}, "LYN B": {"biological_target": "T8, LYN B (Homo sapiens, UniProt P07948)", "T8 construct": "purchased Reaction Biology (HotSpot contract assay)", "assay": "HotSpot in vitro kinase radiometric assay", "assay_type": "biochemical", "how_it_was_run": "as §1"}, "PDK4/PDKH4": {"biological_target": "T9, PDK4/PDKH4 (Homo sapiens, UniProt Q16654)", "T9 construct": "purchased Reaction Biology (HotSpot contract assay)", "assay": "HotSpot in vitro kinase radiometric assay", "assay_type": "biochemical", "how_it_was_run": "as §1"}, "BLK": {"biological_target": "T10, BLK (Homo sapiens, UniProt P51451)", "T10 construct": "purchased Reaction Biology (HotSpot contract assay)", "assay": "HotSpot in vitro kinase radiometric assay", "assay_type": "biochemical", "how_it_was_run": "as §1"}, "c-Src": {"biological_target": "T11, c-Src (Homo sapiens, UniProt P12931)", "T11 construct": "purchased Reaction Biology (HotSpot contract assay)", "T11 sequence (P12931 whole entry)": "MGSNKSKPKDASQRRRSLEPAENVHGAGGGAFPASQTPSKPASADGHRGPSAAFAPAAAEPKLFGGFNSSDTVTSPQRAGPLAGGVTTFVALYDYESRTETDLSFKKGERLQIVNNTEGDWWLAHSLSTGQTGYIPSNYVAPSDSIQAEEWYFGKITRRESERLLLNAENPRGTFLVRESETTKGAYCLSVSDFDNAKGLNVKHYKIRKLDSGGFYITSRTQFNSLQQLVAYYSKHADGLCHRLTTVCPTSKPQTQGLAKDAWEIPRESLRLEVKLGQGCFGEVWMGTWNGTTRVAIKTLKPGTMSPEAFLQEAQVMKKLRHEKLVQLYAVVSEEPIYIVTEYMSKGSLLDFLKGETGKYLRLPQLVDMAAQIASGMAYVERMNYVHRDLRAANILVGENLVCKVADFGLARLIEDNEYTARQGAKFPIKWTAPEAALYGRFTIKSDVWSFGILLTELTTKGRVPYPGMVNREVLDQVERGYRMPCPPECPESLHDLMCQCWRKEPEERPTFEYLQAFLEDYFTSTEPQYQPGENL", "assay": "HotSpot in vitro kinase radiometric assay", "assay_type": "biochemical", "how_it_was_run": "as §1"}, "PDK2/PDHK2": {"biological_target": "T12, PDK2/PDHK2 (Homo sapiens, UniProt Q15119)", "T12 construct": "purchased Reaction Biology (HotSpot contract assay)", "assay": "HotSpot in vitro kinase radiometric assay", "assay_type": "biochemical", "conditions": "read-out: % inhibition at 10 uM: PDK2", "how_it_was_run": "as §1"}, "FGR": {"biological_target": "T13, FGR (Homo sapiens, UniProt P09769)", "T13 construct": "purchased Reaction Biology (HotSpot contract assay)", "T13 sequence (P09769 whole entry)": "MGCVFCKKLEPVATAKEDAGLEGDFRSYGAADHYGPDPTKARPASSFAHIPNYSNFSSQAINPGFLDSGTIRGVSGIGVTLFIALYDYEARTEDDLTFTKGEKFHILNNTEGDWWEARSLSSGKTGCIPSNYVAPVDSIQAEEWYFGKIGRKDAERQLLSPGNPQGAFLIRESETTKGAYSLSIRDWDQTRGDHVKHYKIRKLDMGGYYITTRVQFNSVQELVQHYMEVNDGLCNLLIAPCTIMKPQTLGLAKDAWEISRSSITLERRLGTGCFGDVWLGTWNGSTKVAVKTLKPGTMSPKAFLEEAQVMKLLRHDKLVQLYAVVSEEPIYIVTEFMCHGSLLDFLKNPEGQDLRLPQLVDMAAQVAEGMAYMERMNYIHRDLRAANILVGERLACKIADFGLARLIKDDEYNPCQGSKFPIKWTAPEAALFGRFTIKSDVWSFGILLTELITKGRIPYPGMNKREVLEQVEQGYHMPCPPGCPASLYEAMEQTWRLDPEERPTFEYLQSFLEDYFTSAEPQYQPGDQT", "assay": "HotSpot in vitro kinase radiometric assay", "assay_type": "biochemical"}, "HSP90AB1": {"tested_on": "HSP90AB1", "set-up": "method as in ChEMBL23 (accessed: 23/08/2018)", "conditions": "average of reported values; ref ChEMBL23 (accessed: 23/08/2018); cited from earlier work"}, "LCK": {"biological_target": "T14, LCK (Homo sapiens, UniProt P06239)", "T14 construct": "purchased Reaction Biology (HotSpot contract assay)", "assay": "HotSpot in vitro kinase radiometric assay", "assay_type": "biochemical"}, "ABL1": {"biological_target": "ABL1 (Homo sapiens, UniProt P00519)", "assay": "HotSpot in vitro kinase radiometric assay", "assay_type": "biochemical", "set-up": "purchased Reaction Biology (HotSpot contract assay)"}, "ROCK1": {"tested_on": "ROCK1", "set-up": "method as in ChEMBL23 (accessed: 23/08/2018)", "conditions": "average of reported values; ref ChEMBL23 (accessed: 23/08/2018); cited from earlier work"}, "RPS6KA3": {"tested_on": "RPS6KA3", "set-up": "method as in ChEMBL23 (accessed: 23/08/2018)", "conditions": "average of reported values; ref ChEMBL23 (accessed: 23/08/2018); cited from earlier work"}},
  "data": [
    {"smiles": "CCNC(=O)c1n[nH]c(-c2cc(Cl)c(O)cc2O)c1-c1ccc(OC)cc1", "note": "[VER-49009]", "values": [
      {"measurement": "pActivity, PRKD3", "setting": "PRKD3", "result": 5.8},
      {"measurement": "pActivity, PIM1", "setting": "PIM1", "result": 5.6},
      {"measurement": "pActivity, CSF1R", "setting": "CSF1R", "result": 5.9},
      {"measurement": "pActivity, ROCK2", "setting": "ROCK2", "result": 5.6},
      {"measurement": "remaining activity at 10 µM", "setting": "PEAK1; read-out: % Enzyme Activity (relative to DMSO controls), PEAK1, 10uM, ATP 30 uM, Data 1, Data 2", "result": 75.5, "unit": "%"},
      {"measurement": "inhibition at 10 µM", "setting": "PEAK1; read-out: % inhibition at 10 uM: PEAK1", "result": 24, "unit": "%"},
      {"measurement": "pActivity, CDK2", "setting": "CDK2", "result": 5.2},
      {"measurement": "pActivity, PRKD2", "setting": "PRKD2", "result": 5.8},
      {"measurement": "remaining activity at 10 µM", "setting": "TRKC; read-out: % Enzyme Activity (relative to DMSO controls), TRKC, 10uM, ATP 100 uM, Data 1, Data 2", "result": 68.4, "unit": "%"},
      {"measurement": "inhibition at 10 µM", "setting": "TRKC; read-out: % inhibition at 10 uM: TRKC", "result": "28 ± 5", "unit": "%"},
      {"measurement": "remaining activity at 10 µM", "setting": "PASK; read-out: % Enzyme Activity (relative to DMSO controls), PASK, 10uM, ATP 50 uM, Data 1, Data 2", "result": 98, "unit": "%"},
      {"measurement": "inhibition at 10 µM", "setting": "PASK; read-out: % inhibition at 10 uM: PASK", "result": 2, "unit": "%"},
      {"measurement": "remaining activity at 10 µM", "setting": "TRKA; read-out: % Enzyme Activity (relative to DMSO controls), TRKA, 10uM, ATP 100 uM, Data 1, Data 2", "result": 20.6, "unit": "%"},
      {"measurement": "inhibition at 10 µM", "setting": "TRKA; read-out: % inhibition at 10 uM: TRKA", "result": "79 ± 1", "unit": "%"},
      {"measurement": "remaining activity at 10 µM", "setting": "ABL2/ARG; read-out: % Enzyme Activity (relative to DMSO controls), ABL2/ARG, 10uM, ATP 30 uM, Data 1, Data 2", "result": 101, "unit": "%"},
      {"measurement": "inhibition at 10 µM", "setting": "ABL2/ARG; read-out: % inhibition at 10 uM: ABL2", "result": "1 ± 3", "unit": "%"},
      {"measurement": "remaining activity at 10 µM", "setting": "FYN; read-out: % Enzyme Activity (relative to DMSO controls), FYN, 10uM, ATP 30 uM, Data 1, Data 2", "result": 89.2, "unit": "%"},
      {"measurement": "inhibition at 10 µM", "setting": "FYN; read-out: % inhibition at 10 uM: FYN", "result": "13 ± 3", "unit": "%"},
      {"measurement": "remaining activity at 10 µM", "setting": "YES/YES1; read-out: % Enzyme Activity (relative to DMSO controls), YES/YES1, 10uM, ATP 50 uM, Data 1, Data 2", "result": 77.2, "unit": "%"},
      {"measurement": "inhibition at 10 µM", "setting": "YES/YES1; read-out: % inhibition at 10 uM: YES", "result": "24 ± 1", "unit": "%"},
      {"measurement": "remaining activity at 10 µM", "setting": "DDR1; read-out: % Enzyme Activity (relative to DMSO controls), DDR1, 10uM, ATP 100 uM, Data 1, Data 2", "result": 65.8, "unit": "%"},
      {"measurement": "inhibition at 10 µM", "setting": "DDR1; read-out: % inhibition at 10 uM: DDR1", "result": "29 ± 8", "unit": "%"},
      {"measurement": "remaining activity at 10 µM", "setting": "LYN B; read-out: % Enzyme Activity (relative to DMSO controls), LYN B, 10uM, ATP 20 uM, Data 1, Data 2", "result": 108, "unit": "%"},
      {"measurement": "inhibition at 10 µM", "setting": "LYN B; read-out: % inhibition at 10 uM: LYN B", "result": "-6 ± 3", "unit": "%"},
      {"measurement": "remaining activity at 10 µM", "setting": "PDK4/PDKH4; read-out: % Enzyme Activity (relative to DMSO controls), PDK4/PDKH4, 10uM, ATP 30 uM, Data 1, Data 2", "result": 15.1, "unit": "%"},
      {"measurement": "inhibition at 10 µM", "setting": "PDK4/PDKH4; read-out: % inhibition at 10 uM: PDK4", "result": "86 ± 1", "unit": "%"},
      {"measurement": "remaining activity at 10 µM", "setting": "BLK; read-out: % Enzyme Activity (relative to DMSO controls), BLK, 10uM, ATP 10 uM, Data 1, Data 2", "result": 70.1, "unit": "%"},
      {"measurement": "inhibition at 10 µM", "setting": "BLK; read-out: % inhibition at 10 uM: BLK", "result": "24 ± 8", "unit": "%"},
      {"measurement": "remaining activity at 10 µM", "setting": "c-Src; read-out: % Enzyme Activity (relative to DMSO controls), c-Src, 10uM, ATP 15 uM, Data 1, Data 2", "result": 65.9, "unit": "%"},
      {"measurement": "inhibition at 10 µM", "setting": "c-Src; read-out: % inhibition at 10 uM: SRC", "result": "35 ± 1", "unit": "%"},
      {"measurement": "inhibition at 10 µM", "setting": "PDK2/PDHK2", "result": "95 ± 5", "unit": "%"},
      {"measurement": "remaining activity at 10 µM", "setting": "FGR; read-out: % Enzyme Activity (relative to DMSO controls), FGR, 10uM, ATP 50 uM, Data 1, Data 2", "result": 99, "unit": "%"},
      {"measurement": "inhibition at 10 µM", "setting": "FGR; read-out: % inhibition at 10 uM: FGR", "result": 1, "unit": "%"},
      {"measurement": "pActivity, HSP90AB1", "setting": "HSP90AB1", "result": 7.6},
      {"measurement": "remaining activity at 10 µM", "setting": "LCK; read-out: % Enzyme Activity (relative to DMSO controls), LCK, 10uM, ATP 15 uM, Data 1, Data 2", "result": 72.8, "unit": "%"},
      {"measurement": "inhibition at 10 µM", "setting": "LCK; read-out: % inhibition at 10 uM: LCK", "result": "25 ± 3", "unit": "%"},
      {"measurement": "remaining activity at 10 µM", "setting": "ABL1; read-out: % Enzyme Activity (relative to DMSO controls), ABL1, 10uM, ATP 40 uM, Data 1, Data 2", "result": 80.2, "unit": "%"},
      {"measurement": "inhibition at 10 µM", "setting": "ABL1; read-out: % inhibition at 10 uM: ABL1", "result": "14 ± 8", "unit": "%"},
      {"measurement": "pActivity, ROCK1", "setting": "ROCK1", "result": 5.4},
      {"measurement": "pActivity, RPS6KA3", "setting": "RPS6KA3", "result": 5.5}
    ]}
  ]
}
